Values joined by “and” are separate entries in the source; they are usually repeats but may differ in a detail not shown here. Identical values can stand only once. Like-named read-outs stand apart in the source and are kept apart here.
Biological target: T1, Tg244440 (Toxoplasma gondii, UniProt A0A125YNC9)
T1 sequence (A0A125YNC9 1-462): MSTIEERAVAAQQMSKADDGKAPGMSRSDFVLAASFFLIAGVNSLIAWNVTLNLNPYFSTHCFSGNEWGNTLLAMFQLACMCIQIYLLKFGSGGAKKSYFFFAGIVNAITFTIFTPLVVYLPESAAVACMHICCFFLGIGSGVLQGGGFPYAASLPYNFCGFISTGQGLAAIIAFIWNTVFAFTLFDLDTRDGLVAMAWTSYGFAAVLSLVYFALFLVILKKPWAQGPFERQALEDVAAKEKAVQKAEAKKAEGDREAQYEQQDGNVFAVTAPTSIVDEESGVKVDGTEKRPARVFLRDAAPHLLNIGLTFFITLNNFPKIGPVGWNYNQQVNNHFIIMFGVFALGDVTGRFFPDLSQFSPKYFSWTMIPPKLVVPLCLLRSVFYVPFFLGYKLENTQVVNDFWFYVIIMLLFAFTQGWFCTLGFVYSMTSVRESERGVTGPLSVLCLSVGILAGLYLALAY
Experiment: [3H]-guanine uptake and its inhibition in T. brucei TbNB-KO procyclics expressing Tg244440 (clone F5)
Type: cell-based
Settings: for Ki: competition with 50 nM [3H]-guanine, 30 s, Cheng-Prusoff; for ΔG^0 (Gibbs free energy of interaction): calculated from Km or Ki, ΔG0 = −RTln(Ki)
Procedure: Briefly, PCF cells of T. brucei in logarithmic growth were harvested by centrifugation at 1000× g for 10 min, washed twice in AB and then resuspended in fresh buffer at a final density of 10^8 cells/mL. […] Immediately after finishing the assay, all tubes were flash-frozen in liquid nitrogen and the cell pellets were cut into scintillation vials and lysed with a solution of 2% SDS for one hour under agitation. Then, 3 mL of scintillation fluid (Scintilogic U, Lablogic) was added to each vial and left agitating overnight on a rocking platform. The next morning, the vials were vigorously shaken to ensure optimal mixing and the scintillation was measured in a 300SL (Hidex) scintillation counter. All assays were carried out in triplicate. All experimental data such as Km, Ki and Vmax values are the average and SEM of at least three separate experiments, each in triplicate, unless otherwise indicated.
Background scintillation was measured in vials containing no cells or radiolabeled substrate, and counts associated with extracellular radiolabel were calculated from samples where cells were briefly incubated with the same concentration of radiolabel, but in the presence of saturating concentrations of non-radiolabeled substrate before centrifugation through oil. The average of the three control replicates was subtracted from each data point.

Nc1ccnc2c1ncn2[C@@H]1O[C@H](CO)[C@@H](O)[C@H]1O [1-deazaadenosine]
Ki (Ki): 191 ± 10 µM
ΔG^0 (Gibbs free energy of interaction): -5.07 kcal/mol
δ(ΔG^0) relative to Adenosine: 0.621 kcal/mol

O=C1CC=Nc2nc[nH]c21 [1-deazahypoxanthine]
Ki (Ki): 194 ± 43 µM
ΔG^0 (Gibbs free energy of interaction): -5.07 kcal/mol
δ(ΔG^0) relative to Hypoxanthine: 2.63 kcal/mol

OC[C@H]1O[C@@H](n2cnc3c(O)ccnc32)[C@H](O)[C@@H]1O [1-deazainosine]
Ki (Ki): 524 ± 53 µM
δ(ΔG^0) relative to Inosine: 2.89 kcal/mol

Nc1nc(N)c2[nH]cnc2n1 [2,6-diaminopurine]
Ki (Ki): 211 ± 3.5 µM
ΔG^0 (Gibbs free energy of interaction): -5.02 kcal/mol
δ(ΔG^0) relative to Adenine: -0.406 kcal/mol

Nc1ncnc2c1ncn2[C@H]1C[C@H](O)[C@@H](CO)O1 [2′-deoxyadenosine]
Ki (Ki): 83.9 ± 6.2 µM
ΔG^0 (Gibbs free energy of interaction): -5.57 kcal/mol
δ(ΔG^0) relative to Adenosine: 0.12 kcal/mol

Nc1nc2c(ncn2[C@H]2C[C@H](O)[C@@H](CO)O2)c(=O)[nH]1 [2′-deoxyguanosine]
Ki (Ki): 281 ± 6 µM
ΔG^0 (Gibbs free energy of interaction): -4.85 kcal/mol
δ(ΔG^0) relative to Guanosine: 2.63 kcal/mol
δ(ΔG^0) relative to Guanosine (listed as 2′-Deoxyguanosine): 2.63 kcal/mol

OC[C@H]1O[C@@H](n2cnc3c(O)ncnc32)C[C@@H]1O [2′-deoxyinosine]
Ki (Ki): 117 ± 12 µM
ΔG^0 (Gibbs free energy of interaction): -5.35 kcal/mol
δ(ΔG^0) relative to Inosine: 1.98 kcal/mol

Nc1nccc2c1ncn2[C@@H]1O[C@H](CO)[C@@H](O)[C@H]1O [3-deazaadenosine]
Ki (Ki): 1220 ± 140 µM
ΔG^0 (Gibbs free energy of interaction): -3.97 kcal/mol
δ(ΔG^0) relative to Adenosine: 1.72 kcal/mol

O=c1[nH]ccc2nc[nH]c12 [3-deazahypoxanthine]
Ki (Ki): 59.5 ± 7.2 µM
ΔG^0 (Gibbs free energy of interaction): -5.76 kcal/mol
δ(ΔG^0) relative to Hypoxanthine: 1.94 kcal/mol

Cn1c(=O)[nH]c(=O)c2[nH]cnc21 [3-methylxanthine]
Ki (Ki): 14.6 ± 3.1 µM
ΔG^0 (Gibbs free energy of interaction): -6.6 kcal/mol

Nc1ncnc2c1ccn2[C@@H]1O[C@H](CO)C[C@H]1O [3′-deoxy,7-deazaadenosine]
Ki (Ki): 797 ± 116 µM
ΔG^0 (Gibbs free energy of interaction): -4.23 kcal/mol
δ(ΔG^0) relative to Adenosine: 1.46 kcal/mol

Nc1ncnc2c1ncn2[C@@H]1O[C@H](CO)C[C@H]1O [3′-deoxyadenosine]
Ki (Ki): 71.9 ± 2.3 µM
ΔG^0 (Gibbs free energy of interaction): -5.64 kcal/mol
δ(ΔG^0) relative to Adenosine: 0.024 kcal/mol

Nc1nc2c(ncn2[C@@H]2O[C@H](CO)C[C@H]2O)c(=O)[nH]1 [3′-deoxyguanosine]
Ki (Ki): 196 ± 12 µM
ΔG^0 (Gibbs free energy of interaction): -5.07 kcal/mol
δ(ΔG^0) relative to Guanosine: 2.25 kcal/mol and 2.41 kcal/mol

OC[C@@H]1C[C@@H](O)[C@H](n2cnc3c(O)ncnc32)O1 [3′-deoxyinosine]
Ki (Ki): 102 ± 15 µM
ΔG^0 (Gibbs free energy of interaction): -5.45 kcal/mol
δ(ΔG^0) relative to Inosine: 1.91 kcal/mol

C[C@H]1O[C@@H](n2cnc3c(N)ncnc32)[C@H](O)[C@@H]1O [5′-deoxyadenosine]
Ki (Ki): 85.2 ± 4.2 µM
ΔG^0 (Gibbs free energy of interaction): -5.54 kcal/mol
δ(ΔG^0) relative to Adenosine: 0.14 kcal/mol

C[C@H]1O[C@@H](n2cnc3c(O)ncnc32)[C@H](O)[C@@H]1O [5′-deoxyinosine]
Ki (Ki): 35.3 ± 3 µM
ΔG^0 (Gibbs free energy of interaction): -6.07 kcal/mol
δ(ΔG^0) relative to Inosine: 1.29 kcal/mol

Clc1ncnc2nc[nH]c12 [6-Chloropurine]
Ki (Ki): 109 ± 8 µM
ΔG^0 (Gibbs free energy of interaction): -5.4 kcal/mol
δ(ΔG^0) relative to Hypoxanthine: 2.29 kcal/mol

Sc1ncnc2nc[nH]c12 [6-Mercaptopurine]
Ki (Ki): 3.6 ± 0.8 µM
ΔG^0 (Gibbs free energy of interaction): -7.43 kcal/mol
δ(ΔG^0) relative to Hypoxanthine: 0.287 kcal/mol

CCOc1ncnc2c1c(Cl)cn2[C@@H]1O[C@H](CO)[C@@H](O)[C@H]1O [6-O-ethyl,7-deaza,7-Cl-inosine]
ΔG^0 (Gibbs free energy of interaction): -5.14 kcal/mol
Ki (read-out: Ki): 169 ± 10 µM
δ(ΔG^0) relative to Inosine: 2.2 kcal/mol

COc1ncnc2c1c(Cl)cn2[C@@H]1O[C@H](CO)[C@@H](O)[C@H]1O [6-O-methyl,7-deaza,7-Cl-inosine]
ΔG^0 (Gibbs free energy of interaction): -6 kcal/mol
Ki (read-out: Ki): 39.6 ± 2.8 µM
δ(ΔG^0) relative to Inosine: 1.36 kcal/mol

Nc1nc2nc[nH]c2c(=S)[nH]1 [6-Thioguanine]
Ki (Ki): 1.64 ± 0.25 µM
ΔG^0 (Gibbs free energy of interaction): -7.89 kcal/mol
δ(ΔG^0) relative to Guanine: 0.17 kcal/mol

OC[C@H]1O[C@@H](n2cnc3c(S)ncnc32)[C@H](O)[C@@H]1O [6-thioinosine]
Ki (Ki): 7.3 ± 1.2 µM
ΔG^0 (Gibbs free energy of interaction): -7 kcal/mol
δ(ΔG^0) relative to Inosine: 0.335 kcal/mol

O=c1[nH]cnc2[nH]nc(Br)c12 [7-Br-allopurinol]
ΔG^0 (Gibbs free energy of interaction): -5.71 kcal/mol
Ki (read-out: Ki): 65.7 ± 3.7 µM

OC[C@H]1O[C@@H](n2ccc3c(O)ncnc32)C[C@@H]1O [7-deaza-2′-deoxyinosine]
Ki (Ki): 52.3 ± 8.4 µM
ΔG^0 (Gibbs free energy of interaction): -5.83 kcal/mol
δ(ΔG^0) relative to 2′-Deoxyinosine (relative to 2′-Deoxyinosine): -0.478 kcal/mol

OC[C@@H]1C[C@@H](O)[C@H](n2ccc3c(O)ncnc32)O1 [7-deaza-3′-deoxyinosine]
Ki (Ki): 70.8 ± 11.2 µM
ΔG^0 (Gibbs free energy of interaction): -5.66 kcal/mol
δ(ΔG^0) relative to 3′-Deoxyinosine (relative to 3′-Deoxyinosine): -0.22 kcal/mol

OC[C@H]1O[C@@H](n2cc(Br)c3c(O)ncnc32)[C@H](O)[C@@H]1O [7-deaza-7-Bromoinosine]
Affinity for Tg244440 (in words): high affinity
Ki (Ki): 7.8 ± 1.2 µM
ΔG^0 (Gibbs free energy of interaction): -6.98 kcal/mol
δ(ΔG^0) relative to Inosine: 0.382 kcal/mol

OC[C@H]1O[C@@H](n2cc(Cl)c3c(O)ncnc32)[C@H](O)[C@@H]1O [7-deaza-7-Chloroinosine]
Affinity for Tg244440 (in words): high affinity
Ki (Ki): 8.9 ± 1.3 µM
ΔG^0 (Gibbs free energy of interaction): -6.88 kcal/mol
δ(ΔG^0) relative to Inosine: 0.454 kcal/mol

Nc1nc2c(c(=O)[nH]1)CC=N2 [7-deazaguanine]
Ki (Ki): 49.2 ± 5.8 µM
ΔG^0 (Gibbs free energy of interaction): -5.88 kcal/mol
δ(ΔG^0) relative to Guanine: 2.17 kcal/mol

O=c1[nH]cnc2c1CC=N2 [7-deazahypoxanthine]
Ki (Ki): 318 ± 30 µM
ΔG^0 (Gibbs free energy of interaction): -4.78 kcal/mol
δ(ΔG^0) relative to Hypoxanthine: 2.94 kcal/mol

OC[C@H]1O[C@@H](n2ccc3c(O)ncnc32)[C@H](O)[C@@H]1O [7-deazainosine]
Ki (Ki): 6.32 ± 0.32 µM
ΔG^0 (Gibbs free energy of interaction): -7.1 kcal/mol
δ(ΔG^0) relative to Inosine: 0.263 kcal/mol

O=c1[nH]cnc2nn[nH]c12 [8-azahypoxanthine]
Ki (Ki): > 1000 µM
inhibition at 1000 µM (read-out: Inhibition of the transport of 50 nM [3H]-guanine): < 50%
δ(ΔG^0) relative to Hypoxanthine: >3.61 kcal/mol

Cn1cnc2c(=O)cc[nH]c21 [9-Me,1-deazahypoxanthine]
Ki (read-out: Ki): > 1000 µM
δ(ΔG^0) relative to Hypoxanthine: >3.61 kcal/mol

Nc1nc2cc[nH]c2c(=O)[nH]1 [9-deazaguanine]
Ki (Ki): 9.64 ± 1.59 µM
ΔG^0 (Gibbs free energy of interaction): -6.84 kcal/mol
δ(ΔG^0) relative to Guanine: 1.22 kcal/mol

O=c1[nH]cnc2cc[nH]c12 [9-deazahypoxanthine]
Ki (Ki): 9.12 ± 0.66 µM
ΔG^0 (Gibbs free energy of interaction): -6.88 kcal/mol
δ(ΔG^0) relative to Hypoxanthine: 0.837 kcal/mol

O=c1[nH]c(=O)c2[nH]ccc2[nH]1 [9-deazaxanthine]
Ki (Ki): 48.2 ± 5.4 µM
ΔG^0 (Gibbs free energy of interaction): -5.88 kcal/mol
δ(ΔG^0) relative to Xanthine (relative to Xanthine): 0.072 kcal/mol

Nc1ncnc2[nH]cnc12 [Adenine]
Affinity for Tg244440 (in words): Low affinity
Ki (Ki): 425 ± 80 µM
ΔG^0 (Gibbs free energy of interaction): -4.59 kcal/mol
δ(ΔG^0) relative to Hypoxanthine: 3.11 kcal/mol

Oc1ncnc2[nH]ncc12 [Allopurinol]
Ki (Ki): 185 ± 15 µM
ΔG^0 (Gibbs free energy of interaction): -5.09 kcal/mol
δ(ΔG^0) relative to Hypoxanthine: 2.61 kcal/mol

Nc1ncnc2n[nH]cc12 [Aminopurinol]
ΔG^0 (Gibbs free energy of interaction): -4.97 kcal/mol
Ki (read-out: Ki): 223 ± 27 µM
δ(ΔG^0) relative to Adenine: -0.382 kcal/mol

Nc1nc2c(ncn2[C@@H]2O[C@H](CO)[C@@H](O)[C@H]2O)c(=O)[nH]1 [Guanosine]
Ki (Ki): 3.3 ± 0.3 µM
ΔG^0 (Gibbs free energy of interaction): -7.48 kcal/mol
δ(ΔG^0) relative to Guanine: 0.574 kcal/mol

OC[C@H]1O[C@@H](n2cnc3cncnc32)[C@H](O)[C@@H]1O [Nebularine, 9-(β-D-ribofuranosyl)purine]
Ki (Ki): 491 ± 75 µM
ΔG^0 (Gibbs free energy of interaction): -4.52 kcal/mol
ΔG^0 (Gibbs free energy of interaction) (listed as nebularine): 4.52 kcal/mol
δ(ΔG^0) relative to Adenosine: 1.17 kcal/mol
δ(ΔG^0) relative to Inosine: 2.84 kcal/mol

Reference: PMC8776092, “A Toxoplasma gondii Oxopurine Transporter Binds Nucleobases and Nucleosides Using Different Binding Modes” (International Journal of Molecular Sciences, 2022)
